target: T1, human full-length MKNK1 (Homo sapiens, UniProt Q9BUB5, T385D); test: MKNK1 kinase high ATP assay (TR-FRET); type: biochemical; details: high ATP (2 mM final), 15 min preincubation with enzyme, GST-MKNK1 (T344D)
T1 construct: purchased Carna Biosciences 02-145; host or cells: insect cells (baculovirus expression system)
Outline: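 GST-tagged full-length human MKNK1 from insect cells, preincubated 15 min with compound at 22° C in HEPES pH 7.5/MgCl2/DTT buffer, then reacted 30 min with 2 mM ATP and 0.06 μM biotinylated peptide (final). Phosphopeptide detected by TR-FRET (anti-pS6 pSer236/Eu-ProteinG, streptavidin-XL665), 665/620 ratio normalised to no-enzyme and no-inhibitor controls.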

T1 sequence (Q9BUB5 1-424 isoform Q9BUB5-2 T344D): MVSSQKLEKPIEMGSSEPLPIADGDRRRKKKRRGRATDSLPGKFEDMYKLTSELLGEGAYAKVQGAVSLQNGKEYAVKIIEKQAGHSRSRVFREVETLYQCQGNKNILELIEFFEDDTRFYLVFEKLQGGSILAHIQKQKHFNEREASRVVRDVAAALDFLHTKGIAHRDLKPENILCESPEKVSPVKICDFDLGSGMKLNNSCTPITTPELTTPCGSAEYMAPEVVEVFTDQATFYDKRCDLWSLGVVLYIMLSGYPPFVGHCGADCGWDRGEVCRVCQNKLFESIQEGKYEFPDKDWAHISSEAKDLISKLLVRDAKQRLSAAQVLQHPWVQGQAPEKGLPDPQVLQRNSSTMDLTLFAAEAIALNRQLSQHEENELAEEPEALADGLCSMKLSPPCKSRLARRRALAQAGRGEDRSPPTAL

Point of comparison: `COc1nc2[nH]ncc2cc1Nc1ncnc2sc3c(c12)CC[C@H](C(=O)N1CC2(COC2)C1)C3` [Example 109], IC50 0.7 nM. Against it:
- CN(C)CCCNC(=O)c1[nH]c2ncnc(Nc3cnc4[nH]ncc4c3)c2c1Br [Example 125, 5-Bromo-N-[3-(dimethylamino)propyl]-4-(1H-pyrazolo[3,4-b]pyridin-5-ylamino)-7H-pyrrolo[2,3-d]pyrimidine-6-carboxamide] — 42-fold higher, 29.2 nM
- CCN(C)C(=O)[C@H]1CCc2c(sc3ncnc(Nc4cc5cn[nH]c5nc4OC)c23)C1 [Example 39, (7S)—N-Ethyl-4-[(6-methoxy-1H-pyrazolo[3,4-b]pyridin-5-yl)amino]-N-methyl-5,6,7,8-tetrahydro[1]benzothieno[2,3-d]pyrimidine-7-carboxamide] — within 1.5-fold, 1 nM
- CN(C)[C@H]1CCN(C(=O)[C@H]2CCc3c(sc4ncnc(Nc5cc6cn[nH]c6cn5)c34)C2)C1 [Example 85, [(3S)-3-(Dimethylamino)pyrrolidin-1-yl][(7S)-4-(1H-pyrazolo[3,4-c]pyridin-5-ylamino)-5,6,7,8-tetrahydro[1]benzothieno[2,3-d]pyrimidin-7-yl]methanone] — 6.4-fold higher, 4.5 nM
- FC(F)(F)c1c[nH]c2ncnc(Nc3cnc4[nH]ncc4c3)c12 [Example 15, N-[5-(Trifluoromethyl)-7H-pyrrolo[2,3-d]pyrimidin-4-yl]-1H-pyrazolo[3,4-b]pyridin-5-amine] — 41-fold higher, 28.8 nM
- C[C@@H]1CN(C(=O)[C@H]2CCc3c(sc4ncnc(Nc5cnc6[nH]ncc6c5)c34)C2)C[C@H](C)O1 [Example 105, [(2R,6S)-2,6-Dimethylmorpholin-4-yl][(7S)-4-(1H-pyrazolo[3,4-b]pyridin-5-ylamino)-5,6,7,8-tetrahydro[1]benzothieno[2,3-d]pyrimidin-7-yl]methanone] — 26-fold higher, 18.1 nM
- COc1nc2[nH]ncc2cc1Nc1ncnc2sc(C(=O)N(C)CC(=O)N(C)C)nc12 [Example 130, N-[2-(Dimethylamino)-2-oxoethyl]-7-[(6-methoxy-1H-pyrazolo[3,4-b]pyridin-5-yl)amino]-N-methyl[1,3]thiazolo[5,4-d]pyrimidine-2-carboxamide] — 300-fold higher, 212 nM
- COc1nc2[nH]ncc2cc1Nc1ncnc2sc3c(c12)CC[C@H](C(=O)N1CCOCC1)C3 [Example 34] — 3.6-fold higher, 2.5 nM
- CN(C)C(=O)c1cc2c(Nc3cc4cn[nH]c4cn3)ncnc2[nH]1 [Example 18, N,N-Dimethyl-4-(1H-pyrazolo[3,4-c]pyridin-5-ylamino)-7H-pyrrolo[2,3-d]pyrimidine-6-carboxamide] — 16-fold higher, 11.1 nM
- COc1nc2[nH]ncc2cc1Nc1ncnc2sc3c(c12)CC[C@H](C(=O)N(C)C(C)C)C3 [Example 37, (7S)-4-[(6-Methoxy-1H-pyrazolo[3,4-b]pyridin-5-yl)amino]-N-methyl-N-(propan-2-yl)-5,6,7,8-tetrahydro[1]benzothieno[2,3-d]pyrimidine-7-carboxamide] — 6-fold higher, 4.2 nM
- CN(C)C1CN(C(=O)[C@H]2CCc3c(sc4ncnc(Nc5cnc6[nH]ncc6c5)c34)C2)C1 [Example 142, [3-(Dimethylamino)azetidin-1-yl][(7S)-4-(1H-pyrazolo[3,4-b]pyridin-5-ylamino)-5,6,7,8-tetrahydro[1]benzothieno[2,3-d]pyrimidin-7-yl]methanone] — 17-fold higher, 11.8 nM
- O=C(c1nc2c(Nc3cnc4[nH]ncc4c3)ncnc2s1)N1CCCCC1 [Example 126, Piperidin-1-yl[7-(1H-pyrazolo[3,4-b]pyridin-5-ylamino)[1,3]thiazolo[5,4-d]pyrimidin-2-yl]methanone] — 240-fold higher, 171 nM
- C[C@H]1COCCN1C(=O)c1[nH]c2ncnc(Nc3cc4cn[nH]c4cn3)c2c1Br [Example 121, [5-Bromo-4-(1H-pyrazolo[3,4-c]pyridin-5-ylamino)-7H-pyrrolo[2,3-d]pyrimidin-6-yl][(3S)-3-methylmorpholin-4-yl]methanone] — 43-fold higher, 30.1 nM
- O=C(c1[nH]c2ncnc(Nc3cc4cn[nH]c4nc3O)c2c1Br)N1CCCCC1 [Example 134] — 15-fold higher, 10.8 nM
- O=C([C@H]1CCc2c(sc3ncnc(Nc4cnc5[nH]ncc5c4)c23)C1)N1CCC1 [Example 97, Azetidin-1-yl[(7S)-4-(1H-pyrazolo[3,4-b]pyridin-5-ylamino)-5,6,7,8-tetrahydro[1]benzothieno[2,3-d]pyrimidin-7-yl]methanone] — 68-fold higher, 47.6 nM
- CN(CCC(F)(F)F)C(=O)[C@H]1CCc2c(sc3ncnc(Nc4cnc5[nH]ncc5c4)c23)C1 [Example 94, (7S)—N-Methyl-4-(1H-pyrazolo[3,4-b]pyridin-5-ylamino)-N-(3,3,3-trifluoropropyl)-5,6,7,8-tetrahydro[1]benzothieno[2,3-d]pyrimidine-7-carboxamide] — 12-fold higher, 8.2 nM
- CN(C)C(=O)C1CCc2[nH]c3ncnc(Nc4cc5cn[nH]c5cn4)c3c2C1 (racemic) [Example 31, (RS)—N,N-Dimethyl-4-(1H-pyrazolo[3,4-c]pyridin-5-ylamino)-6,7,8,9-tetrahydro-5H-pyrimido[4,5-b]indole-6-carboxamide] — 84-fold higher, 59.1 nM
- COc1nc2[nH]ncc2cc1Nc1ncnc2sc(C(=O)N3CCCCC3)nc12 [Example 133, {7-[(6-Methoxy-1H-pyrazolo[3,4-b]pyridin-5-yl)amino][1,3]thiazolo[5,4-d]pyrimidin-2-yl}(piperidin-1-yl)methanone] — 210-fold higher, 150 nM
- CCCN(C)C(=O)[C@H]1CCc2c(sc3ncnc(Nc4cc5cn[nH]c5nc4O)c23)C1 [Example 113, (7S)-4-[(6-Hydroxy-1H-pyrazolo[3,4-b]pyridin-5-yl)amino]-N-methyl-N-propyl-5,6,7,8-tetrahydro[1]benzothieno[2,3-d]pyrimidine-7-carboxamide] — 4.7-fold higher, 3.3 nM
- CN(C)C(=O)CCN(C)C(=O)c1nc2c(Nc3cc4cn[nH]c4cn3)ncnc2s1 [Example 137, N-[3-(Dimethylamino)-3-oxopropyl]-N-methyl-7-(1H-pyrazolo[3,4-c]pyridin-5-ylamino)[1,3]thiazolo[5,4-d]pyrimidine-2-carboxamide] — 290-fold higher, 203 nM
- Cc1c[nH]c2ncnc(Nc3cc4cn[nH]c4cn3)c12 [Example 4, N-(5-Methyl-7H-pyrrolo[2,3-d]pyrimidin-4-yl)-1H-pyrazolo[3,4-c]pyridin-5-amine] — 6-fold higher, 4.2 nM
- CCCCN(C)C(=O)[C@H]1CCc2c(sc3ncnc(Nc4cc5cn[nH]c5nc4O)c23)C1 [Example 52, (7S)—N-Butyl-4-[(6-hydroxy-1H-pyrazolo[3,4-b]pyridin-5-yl)amino]-N-methyl-5,6,7,8-tetrahydro[1]benzothieno[2,3-d]pyrimidine-7-carboxamide] — 8.6-fold higher, 6 nM
- CN(C)C(=O)C1CCc2[nH]c3ncnc(Nc4cnc5[nH]ncc5c4)c3c2C1 (racemic) [Example 30, (RS)—N,N-Dimethyl-4-(1H-pyrazolo[3,4-b]pyridin-5-ylamino)-6,7,8,9-tetrahydro-5H-pyrimido[4,5-b]indole-6-carboxamide] — 72-fold higher, 50.7 nM
- O=C(c1[nH]c2ncnc(Nc3cnc4[nH]ncc4c3)c2c1Br)N1CCCCC1 [Example 61, [5-Bromo-4-(1H-pyrazolo[3,4-b]pyridin-5-ylamino)-7H-pyrrolo[2,3-d]pyrimidin-6-yl](piperidin-1-yl)methanone] — 170-fold higher, 120 nM
- O=C(c1[nH]c2ncnc(Nc3cc4cn[nH]c4cn3)c2c1Br)N1CCCCC1 [Example 72, [5-Bromo-4-(1H-pyrazolo[3,4-c]pyridin-5-ylamino)-7H-pyrrolo[2,3-d]pyrimidin-6-yl](piperidin-1-yl)methanone] — 23-fold higher, 16 nM
- O=C([C@H]1CCc2c(sc3ncnc(Nc4cc5cn[nH]c5cn4)c23)C1)N1CCOCC1 [Example 86, Morpholin-4-yl [(7S)-4-(1H-pyrazolo[3,4-c]pyridin-5-ylamino)-5,6,7,8-tetrahydro[1]benzothieno[2,3-d]pyrimidin-7-yl]methanone] — 10-fold higher, 7.1 nM
- COc1nc2[nH]ncc2cc1Nc1ncnc2[nH]c(C(=O)N3CCOCC3)c(Br)c12 [Example 67, {5-Bromo-4-[(6-methoxy-1H-pyrazolo[3,4-b]pyridin-5-yl)amino]-7H-pyrrolo[2,3-d]pyrimidin-6-yl}(morpholin-4-yl)methanone] — 22-fold higher, 15.2 nM
- CCOC(=O)c1[nH]c2ncnc(Nc3cnc4[nH]ncc4c3)c2c1Br [Example 12, Ethyl 5-bromo-4-(1H-pyrazolo[3,4-b]pyridin-5-ylamino)-7H-pyrrolo[2,3-d]pyrimidine-6-carboxylate] — 7.1-fold higher, 5 nM
- COc1nc2[nH]ncc2cc1Nc1ncnc2[nH]c(C(=O)N3CCOC[C@@H]3C)c(Br)c12 [Example 135] — 10-fold higher, 7.3 nM
- COc1nc2[nH]ncc2cc1Nc1ncnc2sc3c(c12)CC[C@H](C(=O)N1CCC(N(C)C)CC1)C3 [Example 43, [4-(Dimethylamino)piperidin-1-yl]{(7S)-4-[(6-methoxy-1H-pyrazolo[3,4-b]pyridin-5-yl)amino]-5,6,7,8-tetrahydro[1]benzothieno[2,3-d]pyrimidin-7-yl}methanone] — 2.3-fold higher, 1.6 nM
- C[C@@H]1COCCN1C(=O)[C@H]1CCc2c(sc3ncnc(Nc4cc5cn[nH]c5cn4)c23)C1 [Example 88, [(3R)-3-Methylmorpholin-4-yl][(7S)-4-(1H-pyrazolo[3,4-c]pyridin-5-ylamino)-5,6,7,8-tetrahydro[1]benzothieno[2,3-d]pyrimidin-7-yl]methanone] — 11-fold higher, 8 nM
- COc1nc2[nH]ncc2cc1Nc1ncnc2[nH]c(C(=O)N3CCOC[C@H]3C)c(Br)c12 [Example 66] — 12-fold higher, 8.3 nM
- CN(C)[C@@H]1CCN(C(=O)[C@H]2CCc3c(sc4ncnc(Nc5cnc6[nH]ncc6c5)c34)C2)C1 [Example 101, [(3R)-3-(Dimethylamino)pyrrolidin-1-yl][(7S)-4-(1H-pyrazolo[3,4-b]pyridin-5-ylamino)-5,6,7,8-tetrahydro[1]benzothieno[2,3-d]pyrimidin-7-yl]methanone] — 6.6-fold higher, 4.6 nM
- CCN(C)C(=O)[C@H]1CCc2c(sc3ncnc(Nc4cnc5[nH]ncc5c4)c23)C1 [Example 92, (7S)—N-Ethyl-N-methyl-4-(1H-pyrazolo[3,4-b]pyridin-5-ylamino)-5,6,7,8-tetrahydro[1]benzothieno[2,3-d]pyrimidine-7-carboxamide] — 22-fold higher, 15.4 nM
